Data from patent US6387881B1, “Inhibitors and substrates of thrombin” (priority 1992, dated 2002).
Where “and” joins values, the source holds several entries; their conditions need not be identical. Equal entries are not always repeated. Where two headings read alike, the source gives them in different places.

What was measured:
[1] = system: citrated normal human plasma; assay: Activated partial thromboplastin time (APTT) for in vitro samples; format: biochemical
Protocol: (§1) A volume of 150 μl of citrated (3.2%) normal human plasma was incubated at 37° C. with sample (20 μl) or buffer (20 μl, control) for 1 min. To the solution was added reconstituted “AUTOMATED APTT” (available from Organon Teknika, 0.1 ml). Each solution was activated at 37° C. for 5 min.
(§2) After activation, calcium chloride (0.1 ml, 0.025M, prewarmed at 37° C.) was added and clot detection was timed using a “semiautomated coagulometer” (Nach, Schnicter und Gross).

human α-thrombin = human α-thrombin (Homo sapiens, UniProt P00734); assay: biochemical; format: biochemical; details: read-out: Ki
Protocol: The inhibition of human α-thrombin was determined by the inhibition of the enzyme catalyzed hydrolysis of three different concentrations of the chromogenic substrate S-2238.
200 μl of sample or buffer and 50 μl of S-2238 were incubated at 37° C. for 1 min and 50 μl of human α-thrombin (0.25 NIHu/ml) was added. The initial rate of inhibited and uninhibited reactions were recorded at 405 nm. The increase in optical density was plotted according to the method of Lineweaver and Burke. The Km and apparent Km were determined and Ki was calculated using the relationship: [formula]

[2] = biological target: T1, bovine thrombin in citrated normal human plasma (Bos taurus, UniProt P00735); assay: Plasma thrombin time (TT), in vitro; format: biochemical; details: inhibitor concentration that caused a doubling of the thrombin time
T1 construct: freshly prepared bovine thrombin (5 NIHu/ml saline)
Protocol: (§3) A volume of 150 μl of citrated normal human plasma and 20 μl of buffer or sample were warmed at 37° C. for 1 min. Coagulation was started by adding 150 ul of freshly prepared bovine thrombin (5 NIHu/ml saline) and the coagulation time was recorded on a coagulometer.
(§4) A phosphate buffer, pH 7.8, containing 0.1% bovine serum albumine and 0.02% sodium azide was used. The samples were dissolved in DMSO and diluted with the buffer. When no inhibitor was used DMSO was added to the buffer to the same concentration as that used in the samples. The inhibitor concentrations were plotted against the thrombin times in a semilogarithmic graph from which the inhibitor concentration that caused a doubling (40 sec) of the thrombin time was determined.

[3] = system: 111indium-labelled platelets; assay: Deposition of 111indium-labelled platelets after intravenous dose; format: in vivo, New Zealand white rabbits
Text: M. Hero, K. D. Butler, C. […] Peripheral blood pressure was monitored by a pressure sensor in the carotid artery.

Urokinase = Urokinase (Homo sapiens, UniProt P00749); assay: IC50 against urokinase; format: biochemical
[4] = IC50 with and without incubation (enzyme not given); format: biochemical
[5] = system: bovine thrombin in plasma samples; assay: Ex-vivo TT; format: in vivo, New Zealand white rabbits; set-up: key: thrombin (coagulation) time in seconds; details: 1 mg/kg i.v. bolus, rabbit
Protocol: as §3, §4
(§5) Data was obtained as for in-vitro tests, but using plasma samples obtained at 0, 1, 10, 30 and 60 minutes after dosing of 1 mg/kg, i.v. bolus injection in a marginal ear vein in New Zealand white rabbits, which were anaesthetized from a canula in the carotid artery. [drawing 18]

Kalhikrein = assay: IC50 against kallikrein; format: biochemical
[6] = Peripheral blood pressure after intravenous dose; format: in vivo, New Zealand white rabbits
Text: […] R. May, C. M. Hero, K. D. Butler, C. P. Page, JOURNAL OF PHARMACOLOGICAL METHODS, 24, pp 1-35, 1990. Peripheral blood pressure was monitored by a pressure sensor in the carotid artery.

Plasmin = Plasmin (Homo sapiens, UniProt P00747); assay: IC50 against plasmin; format: biochemical
Sequence of Plasmin (P00747 97-580 limits assumed, species assumed): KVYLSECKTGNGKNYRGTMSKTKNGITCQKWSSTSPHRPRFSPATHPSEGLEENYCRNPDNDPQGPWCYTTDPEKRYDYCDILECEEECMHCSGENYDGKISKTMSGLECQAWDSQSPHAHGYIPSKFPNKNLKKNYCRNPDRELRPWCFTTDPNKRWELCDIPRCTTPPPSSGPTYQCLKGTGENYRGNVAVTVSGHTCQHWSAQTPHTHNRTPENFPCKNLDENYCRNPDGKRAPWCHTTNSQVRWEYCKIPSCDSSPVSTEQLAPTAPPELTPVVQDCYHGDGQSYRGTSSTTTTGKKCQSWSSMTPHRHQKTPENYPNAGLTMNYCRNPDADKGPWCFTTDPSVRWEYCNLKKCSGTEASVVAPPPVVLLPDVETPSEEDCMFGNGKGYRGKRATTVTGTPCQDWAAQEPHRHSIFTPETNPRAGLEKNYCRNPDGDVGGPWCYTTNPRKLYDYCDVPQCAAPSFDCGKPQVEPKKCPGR
Sequence of Plasmin (P00747 581-810 limits assumed, species assumed): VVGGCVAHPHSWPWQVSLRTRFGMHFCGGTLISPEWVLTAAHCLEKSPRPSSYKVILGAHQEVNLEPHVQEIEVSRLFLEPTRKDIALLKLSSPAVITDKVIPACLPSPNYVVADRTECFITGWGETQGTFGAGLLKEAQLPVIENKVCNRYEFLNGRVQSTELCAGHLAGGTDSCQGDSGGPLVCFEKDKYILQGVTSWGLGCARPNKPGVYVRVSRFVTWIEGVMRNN

plasma samples = assay: Ex-vivo APTT; format: in vivo, New Zealand white rabbits; set-up: unit not given here; details: 1 mg/kg i.v. bolus, rabbit
Protocol: as §1, §2, §5

Xa = biological target: T2, Xa (Homo sapiens, UniProt P00742); assay: IC50 against Xa; format: biochemical
T2 construct: Plasmin; Xa; Urokinase
T2 sequence (P00742 41-179 limits assumed): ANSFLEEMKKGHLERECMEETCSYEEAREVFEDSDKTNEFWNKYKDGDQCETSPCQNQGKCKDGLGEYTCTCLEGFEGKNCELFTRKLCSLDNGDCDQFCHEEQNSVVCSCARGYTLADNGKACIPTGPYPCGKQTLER
T2 sequence (P00742 235-488 limits assumed): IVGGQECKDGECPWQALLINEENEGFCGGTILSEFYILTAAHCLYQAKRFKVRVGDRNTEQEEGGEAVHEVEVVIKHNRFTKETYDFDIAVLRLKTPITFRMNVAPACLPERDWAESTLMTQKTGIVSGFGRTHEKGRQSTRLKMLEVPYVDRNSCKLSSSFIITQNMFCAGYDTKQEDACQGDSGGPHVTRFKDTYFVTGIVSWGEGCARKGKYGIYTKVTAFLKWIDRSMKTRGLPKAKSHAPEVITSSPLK

[7] = single value given, incubation not given, read-out: Urokinase no inc/inc
[8] = no incubation, read-out: IC50 No Incubations
[9] = single value given, incubation not given, read-out: Kalhikrein no inc/inc
[10] = single value given, incubation not given, read-out: Plasmin no inc/inc
[11] = single value given, incubation not given, read-out: Xa no inc/inc
[12] = human α-thrombin, S-2238, 37° C.

## N=C(N)NCCCC(NC(=O)C1CCCN1C(=O)C(N)C(c1ccccc1)c1ccccc1)C(=O)CCC(=O)N1CCCCC1 (mixture of isomers) [Compound 4, D,L-Dpa-Pro-Arg--k--Gly-Pip]
[1]
  APTT: 45.0 µM
Human α-thrombin
  Ki: 600 nM

## N=C(N)NCCCC(NC(=O)C1CCCN1C(=O)C(N)Cc1ccc2ccccc2c1)C(=O)CCC(=O)N1CCCCC1 (mixture of isomers) [Compound 14, D,L-β-Nal-Pro-Arg--k--Gly-Pip]
Human α-thrombin
  Ki: 11600 nM
[2]
  TT: 90.0 µM

## N=C(N)NCCCC(NC(=O)C1CCCN1C(=O)C(N)C(c1ccccc1)c1ccccc1)C(=O)CCC(=O)N1CCCCC1.O=C(O)C(F)(F)F.O=C(O)C(F)(F)F [Compound 6, D-Dpa-Pro-Arg--k--Gly-Pip]
[3]; 1 mg/kg i.v. dose
  PLATELET ACCUMULATION (% OF NORMAL) LEG: NONE
  PLATELET ACCUMULATION (% OF NORMAL) LUNG: NONE
[1]
  APTT: 8.0 µM
Urokinase; [7]
  IC50: 494 µM
[4]; [8]
  IC50: 200 nM
[5]; time 0 min
  EX-VIVO T.T.: 24.4 and 25.6 and 32.9 and 27.9
[5]; time 1 min
  EX-VIVO T.T.: 176 and 200 and 260 and >200
[5]; time 10 min
  EX-VIVO T.T.: 55 and 61.4 and 76 and 57.5
[5]; time 30 min
  EX-VIVO T.T.: 33 and 36.9 and 62 and 36
[5]; time 60 min
  EX-VIVO T.T.: 25 and 27.9 and 49 and 31.5
Human α-thrombin
  Ki: 200 nM
Kalhikrein; [9]
  IC50: 199 µM
[6]; 1 mg/kg i.v. dose
  BLOOD PRESSURE Δ% of NORM: NONE
Plasmin; [10]
  IC50: > 157 µM
Plasma samples; time 1 min
  EX-VIVO A.P.T.T.: 46 and 78
Plasma samples; time 10 min
  EX-VIVO A.P.T.T.: 32 and 55
Plasma samples; time 30 min
  EX-VIVO A.P.T.T.: 34 and 57
Plasma samples; time 60 min
  EX-VIVO A.P.T.T.: 27 and 42
[2]
  TT: 0.65 µM
Xa; [11]
  IC50: 149 µM

## N=C(N)NCCCC(NC(=O)C1CCCN1C(=O)C(N)C(c1ccccc1)c1ccccc1)C(=O)CCC(=O)N1CCCCC1.O=C(O)C(F)(F)F.O=C(O)C(F)(F)F (stereo not drawn) [Compound 7, L,Dpa-Pro-Arg--k--Gly-Pip]
[1]
  APTT: 100.0 µM
Human α-thrombin
  Ki: 1700 nM
[2]
  TT: 7.5 µM

## N=C(N)NCCCC(NC(=O)C1CCCN1C(=O)C(N)C1c2ccccc2-c2ccccc21)C(=O)CCC(=O)N1CCCCC1 [Compound 8, D-Fgl-Pro-Arg--k--Gly-Pip]
[2]
  TT: 50.0 µM

## COCCCC(NC(=O)[C@@H]1CCCN1C(=O)[C@H](N)C(c1ccccc1)c1ccccc1)P(=O)(Oc1ccccc1)Oc1ccccc1 (stereo partly drawn) [Compound 32, H-D-Dpa-Pro-Mpg^P(OPh)2]
Urokinase; no incubation (first value of cell), read-out: Urokinase no inc
  IC50: 83 µM
Urokinase; with incubation (second value of cell), read-out: Urokinase inc
  IC50: > 18.7 µM
[4]; [8]
  IC50: 1480 nM
[4]; with incubation, read-out: IC50 Inc.
  IC50: 2.35 nM
Human α-thrombin; [12]
  Ki: 4.8 nM
Kalhikrein; no incubation (first value of cell), read-out: Kalhikrein no inc
  IC50: 66.7 µM
Kalhikrein; with incubation (second value of cell), read-out: Kalhikrein inc
  IC50: > 18.7 µM
Plasmin; no incubation (first value of cell), read-out: Plasmin no inc
  IC50: > 187 µM
Plasmin; with incubation (second value of cell), read-out: Plasmin inc
  IC50: 3.32 µM
[2]
  TT: 9.1 µM
Xa; no incubation (first value of cell), read-out: Xa no inc
  IC50: 39.7 µM
Xa; with incubation (second value of cell), read-out: Xa inc
  IC50: > 18.7 µM

## CC(C)(C)OC(=O)NC(Cc1ccccc1)C(=O)N1CCCC1C(=O)NC(C=O)Cc1cnc[nH]1 [Compound 53, Boc-D-Phe-Pro-His-H]
[3]; 1 mg/kg i.v. dose
  PLATELET ACCUMULATION (% OF NORMAL) LEG: NONE
  PLATELET ACCUMULATION (% OF NORMAL) LUNG: NONE
[3]; 4 mg/kg iv. dose
  PLATELET ACCUMULATION (% OF NORMAL) LEG: NONE
  PLATELET ACCUMULATION (% OF NORMAL) LUNG: NONE
Urokinase; [7]
  IC50: > 413 µM
[5]; time 0 min
  EX-VIVO T.T.: 26 and 27 and 24 and 24.9
[5]; time 1 min
  EX-VIVO T.T.: 86.9 and 83.5 and 80.9 and 74
[5]; time 10 min
  EX-VIVO T.T.: 32 and 30 and 29.9
[5]; time 30 min
  EX-VIVO T.T.: 24.4 and 25 and 25.9 and 25.4
[5]; time 60 min
  EX-VIVO T.T.: 24.4 and 23.9 and 22.9
Kalhikrein; [9]
  IC50: > 413 µM
[6]; 1 mg/kg i.v. dose
  BLOOD PRESSURE Δ% of NORM: NONE
[6]; 4 mg/kg iv. dose
  BLOOD PRESSURE Δ% of NORM: 0 Δ% of NORM
Plasmin; [10]
  IC50: > 413 µM
Plasma samples; time 0 min
  EX-VIVO A.P.T.T.: 32.9 and 24.9
Plasma samples; time 1 min
  EX-VIVO A.P.T.T.: 41.5 and 27.9 and 30.9
Plasma samples; time 10 min
  EX-VIVO A.P.T.T.: 39.9 and 29.9 and 26 and 25.9
Plasma samples; time 30 min
  EX-VIVO A.P.T.T.: 31.4 and 30.4 and 25.4 and 26.1
Plasma samples; time 60 min
  EX-VIVO A.P.T.T.: 28.9 and 27.5 and 25.9
Xa; [11]
  IC50: > 413 µM

## N=C(N)NCCCC(NC(=O)C1CCCN1C(=O)C(N)Cc1ccc2ccccc2c1)C(=O)CCC(=O)N1CCCCC1 [Compound 54, D-β-Nal-Pro-Arg--k--Gly-Pip]
[1]
  APTT: 45.0 µM
Human α-thrombin; [12]
  Ki: 2870 nM
[2]
  TT: 5.3 µM

## N=C(N)Nc1ccc(CC(NC(=O)[C@@H]2CCCN2C(=O)[C@H](N)Cc2ccccc2)C(=O)CCC(=O)N2CCCCC2)cc1 (stereo partly drawn) [D-Phe-Pro-Gpa-k--Gly-Pip, D-Phe-Pro-Gpa--k--Gly-Pip]
Human α-thrombin
  Ki: 1300 nM
[2]
  TT: 4.9 µM
